According to ChEMBL document CHEMBL1156085, “Design of novel alpha7-subtype-preferring nicotinic acetylcholine receptor agonists: application of docking and MM-PBSA computational approaches, synthetic and pharmacological studies” (Bioorg Med Chem Lett, 2009):
pKi: −log10 of the molar value.

What was measured:
[1] = target: T1, Neuronal acetylcholine receptor subunit alpha-7 (Rattus norvegicus, UniProt Q05941); assay: Displacement of [125I]alpha-bungarotoxin from rat alpha7 nAChR
[2] = target: Neuronal acetylcholine receptor; alpha4/beta2 (Rattus norvegicus, UniProt P09483+P12390); assay: Displacement of [3H]epibatidine from rat alpha4beta2 nAChR; format: protein-complex assay
Sequence of Neuronal acetylcholine receptor; alpha4/beta2 (P09483 whole entry): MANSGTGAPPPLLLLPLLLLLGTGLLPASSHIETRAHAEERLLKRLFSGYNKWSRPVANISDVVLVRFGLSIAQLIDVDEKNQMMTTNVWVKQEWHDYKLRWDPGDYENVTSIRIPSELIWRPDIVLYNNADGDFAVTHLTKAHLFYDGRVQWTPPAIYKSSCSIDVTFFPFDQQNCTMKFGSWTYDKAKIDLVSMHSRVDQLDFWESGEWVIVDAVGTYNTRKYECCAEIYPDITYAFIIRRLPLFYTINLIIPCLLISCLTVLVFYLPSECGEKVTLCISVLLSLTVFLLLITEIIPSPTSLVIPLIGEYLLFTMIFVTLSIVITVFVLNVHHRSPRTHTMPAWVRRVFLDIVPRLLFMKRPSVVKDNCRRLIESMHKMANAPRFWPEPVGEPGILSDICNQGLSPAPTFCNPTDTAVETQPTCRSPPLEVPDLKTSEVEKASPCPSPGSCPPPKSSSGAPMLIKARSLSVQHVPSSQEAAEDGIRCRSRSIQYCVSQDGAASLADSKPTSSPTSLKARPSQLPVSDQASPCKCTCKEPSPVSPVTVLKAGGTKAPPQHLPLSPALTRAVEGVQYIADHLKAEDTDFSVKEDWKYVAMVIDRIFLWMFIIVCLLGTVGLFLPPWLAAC
Sequence of Neuronal acetylcholine receptor; alpha4/beta2 (P12390 whole entry): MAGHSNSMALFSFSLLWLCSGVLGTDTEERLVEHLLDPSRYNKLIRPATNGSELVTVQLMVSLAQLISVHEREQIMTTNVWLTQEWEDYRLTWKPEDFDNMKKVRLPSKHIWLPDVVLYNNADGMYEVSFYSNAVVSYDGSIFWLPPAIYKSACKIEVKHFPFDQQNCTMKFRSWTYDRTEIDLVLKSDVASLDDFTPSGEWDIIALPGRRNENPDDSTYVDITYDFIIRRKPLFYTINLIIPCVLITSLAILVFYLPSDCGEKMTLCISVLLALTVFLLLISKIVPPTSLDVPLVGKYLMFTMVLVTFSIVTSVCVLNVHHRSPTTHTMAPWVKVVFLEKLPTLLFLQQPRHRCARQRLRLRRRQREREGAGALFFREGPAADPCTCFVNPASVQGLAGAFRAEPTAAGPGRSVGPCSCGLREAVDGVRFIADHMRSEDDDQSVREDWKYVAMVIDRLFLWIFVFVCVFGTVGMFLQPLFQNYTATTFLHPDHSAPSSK

[3] = target: T1, Neuronal acetylcholine receptor subunit alpha-7; assay: Displacement of [3H]MLA from rat alpha7 nAChR

T1 sequence (Q05941 whole entry): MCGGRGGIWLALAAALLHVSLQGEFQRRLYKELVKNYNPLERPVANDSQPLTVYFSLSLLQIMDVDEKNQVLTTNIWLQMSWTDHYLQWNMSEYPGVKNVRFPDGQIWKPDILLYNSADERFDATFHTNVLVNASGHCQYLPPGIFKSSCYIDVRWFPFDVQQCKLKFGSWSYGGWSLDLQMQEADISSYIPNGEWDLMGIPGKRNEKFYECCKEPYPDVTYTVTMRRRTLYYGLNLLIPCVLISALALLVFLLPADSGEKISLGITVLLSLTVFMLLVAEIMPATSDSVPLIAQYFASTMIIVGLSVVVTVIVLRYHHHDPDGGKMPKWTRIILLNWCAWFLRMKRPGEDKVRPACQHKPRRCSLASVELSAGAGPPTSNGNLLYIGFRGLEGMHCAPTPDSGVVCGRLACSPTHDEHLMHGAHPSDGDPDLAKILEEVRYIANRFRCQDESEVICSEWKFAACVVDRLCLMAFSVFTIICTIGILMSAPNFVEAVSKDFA

Row | Compound | pKi [1] | pKi [2] | pKi [3]
1 | c1cc(N2CCOCC2)ncc1C1CN2CCC1CC2 (stereo not drawn) | 6.46 | 4.68 | 
2 | C1=C(c2ccc(N3CCOCC3)nc2)C2CCC1N2 (stereo not drawn) | 4.48 | 4.92 | 
3 | C1=C(c2ccc(N3CCOCC3)nc2)C2CCN1CC2 | 6.40 | 5.51 | 
4 | C[N+]12CCC(CC1)C(c1ccc(N3CCOCC3)nc1)C2 (stereo not drawn) | 5.21 | 4.60 | 
5 | C[N+]12C=C(c3ccc(N4CCOCC4)nc3)C(CC1)CC2 | 5.25 | 4.66 | 
6 | C1=C(c2cccnc2)C2CCN1CC2 | 6.85 | 6.96 | 7.07
